The supplement of paper PMC11208160

Experiment: recombinant barcode read abundance after kanamycin selection (control-corrected) (log10(CPM+1)); higher = more efficient recombination; sequences stand for … in AGTGCAGAGAAAATCGGCCAGTTTTCTCTGCCTGCAGTCCGCATGCCGT…AGATTTATGCAGCGGACTGCCTTTCTCCCAAAGTGATAAACCGGACAGTATCATGGACCGGTTTTCCCGGTAATCCGTATTTGCAAGGTTGGTTTCACT; site = the 11-nt target
Summary of the method: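 Each value is log10(CPM+1). It describes recombination efficiency, taken as averaged, control-corrected counts per million of barcodes at recombinant junctions. The pooled E. coli library paired targets with IS621 bridge RNA target-binding loops, was co-electroporated with a donor plasmid, and was plated twice on chloramphenicol/ampicillin LB agar (control) and twice on chloramphenicol/ampicillin/kanamycin containing 0.1 mM IPTG.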
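Further: IS621 recombinase and bridge RNA in Escherichia coli cells.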

Compared with “CAGCAAGCTTGGGTTCTAACCTGTTGCCT (site CAGCAAGCTAG)”, “CTCCATTCTTGGGTTCTAACCTGTTGCAT (site CTCCATTCTAT)” is higher in “recombinant barcode read abundance (log10)” value: 1.17 for the first, 1.74 for the second.

First: TAGGGTACTTGGGTTCTAACCTGTTGCGC (site ACAACCTCTCG)
Second: AACTTGACTTGGGTTCTAACCTGTTGCCT (site AAATTGACTAG)
The “recombinant barcode read abundance (log10)” value of the first is lower: 0.0219 for the first, 0.248 for the second.

“GTCCGTCCTTGGGTTCTAACCTGTTGCCT (site GTCCGTCCTAA)” and “CAGTTCGCTTGGGTTCTAACCTGTTGCCT (site CAGTTTGCTAG)” are within 0.2 log units of each other in “recombinant barcode read abundance (log10)” value: 0.119 for the first, 0.0585 for the second.

“CACACTACTTGGGTTCTAACCTGTTGCTT (site TATACTACTAA)” and “ATGGGTCCTTGGGTTCTAACCTGTTGCCT (site ATCGGTCCTAG)” are within 0.2 log units of each other in “recombinant barcode read abundance (log10)” value: 0.101 for the first, 0.0834 for the second.

“ACCCTAACTTGGGTTCTAACCTGTTGCGG (site ACCTTAGCTCC)” and “TTAAGCTCTTGGGTTCTAACCTGTTGCCT (site GTAAGCTCTAG)” are the same in “recombinant barcode read abundance (log10)” value: 0 for the first, 0 for the second.

Going from “ACCTTGTCTTGGGTTCTAACCTGTTGCCT (site ACGTTGTCTAG)” to “CTAGACTCTTGGGTTCTAACCTGTTGCAG (site CTAGACTCTCT)”, the “recombinant barcode read abundance (log10)” value rises from 0.0273 to 2.42.

Going from “GCCCGAACTTGGGTTCTAACCTGTTGCCT (site GCCCGAACTAG)” to “GCCGAGTCTTGGGTTCTAACCTGTTGCTA (site GCCGAGTCTAA)”, the “recombinant barcode read abundance (log10)” value falls from 0.998 to 0.0891.

“ACTTCGACTTGGGTTCTAACCTGTTGCCT (site ACTTCGACTAG)” and “GCACTCCCTTGGGTTCTAACCTGTTGCCT (site GCGCTCCCTAG)” are within 0.2 log units of each other in “recombinant barcode read abundance (log10)” value: 0.116 for the first, 0.199 for the second.

First: ATCGGAACTTGGGTTCTAACCTGTTGCCT (site ATCGGATCTAG)
Second: CCGGCCACTTGGGTTCTAACCTGTTGCCT (site CCGGCCACTAG)
The “recombinant barcode read abundance (log10)” value of the first is lower: 0.209 for the first, 1.82 for the second.

First: CAGGAACCTTGGGTTCTAACCTGTTGCCT (site GAGGAACCTAG)
Second: ATGGGCCCTTGGGTTCTAACCTGTTGCTC (site ATGGGCCCTAA)
The “recombinant barcode read abundance (log10)” value of the first is lower: 0.235 for the first, 1.36 for the second.

“ATGTCTACTTGGGTTCTAACCTGTTGCCA (site ATAACTACTTG)” and “TGCACTCCTTGGGTTCTAACCTGTTGCCT (site TGCACTCCTAG)” are within 0.2 log units of each other in “recombinant barcode read abundance (log10)” value: 0.0597 for the first, 0.0424 for the second.

Compared with “TGAGACTCTTGGGTTCTAACCTGTTGCCT (site TGCGACTCTAG)”, “CGTTAACCTTGGGTTCTAACCTGTTGCGT (site CGTAAACCTAC)” is higher in “recombinant barcode read abundance (log10)” value: 0.0734 for the first, 0.423 for the second.

Going from “TAGTGCTCTTGGGTTCTAACCTGTTGCCC (site TAGTGCTCTGG)” to “TCGATCCCTTGGGTTCTAACCTGTTGCCT (site TCAATCCCTAG)”, the “recombinant barcode read abundance (log10)” value falls from 1.37 to 0.194.

Going from “GATGATACTTGGGTTCTAACCTGTTGCGT (site GTTTATACTAC)” to “AGGGCGCCTTGGGTTCTAACCTGTTGCCT (site AGGGCGCCTAG)”, the “recombinant barcode read abundance (log10)” value rises from 0.0738 to 1.63.

Going from “AGTTCCACTTGGGTTCTAACCTGTTGCCT (site AGTTTCACTAG)” to “TTCTACTCTTGGGTTCTAACCTGTTGCCT (site TTCTACTCTAG)”, the “recombinant barcode read abundance (log10)” value rises from 0.102 to 0.405.

First: CACAAGTCTTGGGTTCTAACCTGTTGCCG (site CACAAGTCTCG)
Second: GTTAGAGCTTGGGTTCTAACCTGTTGCCT (site GTTAGAGCTAG)
The “recombinant barcode read abundance (log10)” value of the first is lower: 0.657 for the first, 1.32 for the second.

“AGTTGTCCTTGGGTTCTAACCTGTTGCAT (site AGTTGTCCTAG)” and “AATGTATCTTGGGTTCTAACCTGTTGCCT (site AATGAATCTAG)” are within 0.2 log units of each other in “recombinant barcode read abundance (log10)” value: 0.0326 for the first, 0 for the second.

Compared with “CTTAGTACTTGGGTTCTAACCTGTTGCAT (site GACGTGCCTCG)”, “AGGATAGCTTGGGTTCTAACCTGTTGCGG (site AGTCTAGCTCC)” is lower in “recombinant barcode read abundance (log10)” value: 0.432 for the first, 0.102 for the second.

“GTTACAACTTGGGTTCTAACCTGTTGCCT (site CTTACGACTAG)” and “AATATGCCTTGGGTTCTAACCTGTTGCCT (site AATCTCCCTAG)” are within 0.2 log units of each other in “recombinant barcode read abundance (log10)” value: 0.0197 for the first, 0.0372 for the second.

Going from “TTGGAAGCTTGGGTTCTAACCTGTTGCCT (site TTGGCAGCTAG)” to “AGTAGGACTTGGGTTCTAACCTGTTGCAG (site AGTAGGACTCT)”, the “recombinant barcode read abundance (log10)” value rises from 0.0513 to 2.

Going from “TCCCAAGCTTGGGTTCTAACCTGTTGCTA (site TCCAAAGCTTA)” to “AAATCCTCTTGGGTTCTAACCTGTTGCCT (site GAATCCTCTAG)”, the “recombinant barcode read abundance (log10)” value falls from 0.589 to 0.085.

Going from “CGACATACTTGGGTTCTAACCTGTTGCGT (site CGACATACTAC)” to “ACATGCACTTGGGTTCTAACCTGTTGCAT (site ACATGAACTAT)”, the “recombinant barcode read abundance (log10)” value falls from 0.593 to 0.0673.

Compared with “TTAACTACTTGGGTTCTAACCTGTTGCTT (site TTAACTACTCA)”, “ATCGGAACTTGGGTTCTAACCTGTTGCCT (site ATCGGAACTAG)” is higher in “recombinant barcode read abundance (log10)” value: 0.233 for the first, 1.01 for the second.

Going from “GAGATATCTTGGGTTCTAACCTGTTGCCT (site GAGACATCTAG)” to “ACGCGAGCTTGGGTTCTAACCTGTTGCTG (site ACGCGAGCTCC)”, the “recombinant barcode read abundance (log10)” value falls from 0.339 to 0.

“GTACGGCCTTGGGTTCTAACCTGTTGCCT (site GTACCGCCTAG)” and “AACTGGGCTTGGGTTCTAACCTGTTGCCT (site ATCTGGGCTAG)” are within 0.2 log units of each other in “recombinant barcode read abundance (log10)” value: 0.0984 for the first, 0.141 for the second.

“AGTATGACTTGGGTTCTAACCTGTTGCCT (site CGTATGACTAG)” and “AGGGTAGCTTGGGTTCTAACCTGTTGCCT (site AGGGCAGCTAG)” are within 0.2 log units of each other in “recombinant barcode read abundance (log10)” value: 0.304 for the first, 0.224 for the second.

Going from “GTCCTGTCTTGGGTTCTAACCTGTTGCCG (site GTCGTGTCTCG)” to “CTCTAAACTTGGGTTCTAACCTGTTGCCG (site CTCATAACTCG)”, the “recombinant barcode read abundance (log10)” value falls from 0.397 to 0.132.

First: GCTTTACCTTGGGTTCTAACCTGTTGCTT (site GCTTTACCTAA)
Second: TGCCCCTCTTGGGTTCTAACCTGTTGCCG (site ACAAGGCCTAT)
The “recombinant barcode read abundance (log10)” value of the first is higher: 0.368 for the first, 0.0768 for the second.

“CTACGACCTTGGGTTCTAACCTGTTGCAG (site TACGATACTAC)” and “AACGCTTCTTGGGTTCTAACCTGTTGCCT (site ACCGCTTCTAG)” are within 0.2 log units of each other in “recombinant barcode read abundance (log10)” value: 0.186 for the first, 0.215 for the second.

“GAGGCTCCTTGGGTTCTAACCTGTTGCCG (site GAGGCTCCTGG)” and “AGTTGTCCTTGGGTTCTAACCTGTTGCTT (site AGTTGTCCTAA)” are within 0.2 log units of each other in “recombinant barcode read abundance (log10)” value: 0.138 for the first, 0.126 for the second.

Compared with “GAGTGAGCTTGGGTTCTAACCTGTTGCAT (site GAGGGAGCTAT)”, “TATATAACTTGGGTTCTAACCTGTTGCCT (site TATAAAACTAG)” is lower in “recombinant barcode read abundance (log10)” value: 0.986 for the first, 0.137 for the second.

“GTTTCGTCTTGGGTTCTAACCTGTTGCCT (site GTTTCGACTAG)” and “TCCCGACCTTGGGTTCTAACCTGTTGCCT (site TCCCGATCTAG)” are within 0.2 log units of each other in “recombinant barcode read abundance (log10)” value: 0.0118 for the first, 0.0793 for the second.

First: TCGGTTCCTTGGGTTCTAACCTGTTGCCT (site TAGGTTCCTAG)
Second: ACAGAGACTTGGGTTCTAACCTGTTGCGC (site ACATAGACTGC)
The “recombinant barcode read abundance (log10)” value of the first is higher: 0.439 for the first, 0.221 for the second.

Compared with “AATGGGACTTGGGTTCTAACCTGTTGCCT (site AATGGGTCTAG)”, “ACCTACCCTTGGGTTCTAACCTGTTGCGG (site ACCTACCCTCC)” is higher in “recombinant barcode read abundance (log10)” value: 0.0882 for the first, 2.33 for the second.

Compared with “ACTTCGACTTGGGTTCTAACCTGTTGCCT (site ATTTCGACTAG)”, “TCGCCTACTTGGGTTCTAACCTGTTGCCG (site TCCCCGACTCG)” is higher in “recombinant barcode read abundance (log10)” value: 0.0176 for the first, 0.255 for the second.

“CTAACTGCTTGGGTTCTAACCTGTTGCGT (site TCCCAAACTGT)” and “ATGGTGGCTTGGGTTCTAACCTGTTGCCT (site ATGGTGCCTAG)” are within 0.2 log units of each other in “recombinant barcode read abundance (log10)” value: 0.177 for the first, 0.288 for the second.

Compared with “TGCGGGTCTTGGGTTCTAACCTGTTGCCT (site GAGCTTGCTTC)”, “CACTTGCCTTGGGTTCTAACCTGTTGCCT (site CACTTGCCTAG)” is higher in “recombinant barcode read abundance (log10)” value: 0.273 for the first, 0.754 for the second.

Compared with “GGGGTTCCTTGGGTTCTAACCTGTTGCGT (site GGGGTTCCTAT)”, “TGACATTCTTGGGTTCTAACCTGTTGCTT (site TGACATTCTAA)” is lower in “recombinant barcode read abundance (log10)” value: 1.85 for the first, 0.13 for the second.

First: CGGTACACTTGGGTTCTAACCTGTTGCGG (site CGGGACACTCC)
Second: GAGACGGCTTGGGTTCTAACCTGTTGCTT (site GAGGCGGCTAA)
The “recombinant barcode read abundance (log10)” value of the first is higher: 0.78 for the first, 0.424 for the second.

Going from “AATAGCTCTTGGGTTCTAACCTGTTGCCT (site GATAGCTCTAG)” to “CGGAATTCTTGGGTTCTAACCTGTTGCCT (site CGTTATTCTAG)”, the “recombinant barcode read abundance (log10)” value rises from 0.166 to 0.743.

First: ATCGGAGCTTGGGTTCTAACCTGTTGCAG (site ATCGGAGCTCA)
Second: AAGGTCACTTGGGTTCTAACCTGTTGCTG (site AAGGTCACTCA)
The “recombinant barcode read abundance (log10)” value of the first is lower: 0.504 for the first, 2.52 for the second.

Going from “CTGAGCCCTTGGGTTCTAACCTGTTGCCG (site CTGAGCCCTCG)” to “TAGTTCACTTGGGTTCTAACCTGTTGCCA (site TAGTTTACTTG)”, the “recombinant barcode read abundance (log10)” value falls from 1.08 to 0.0834.

“TGGACTTCTTGGGTTCTAACCTGTTGCTC (site TGGACTTCTGA)” and “TAACTTACTTGGGTTCTAACCTGTTGCAT (site TAACGTACTAT)” are within 0.2 log units of each other in “recombinant barcode read abundance (log10)” value: 0.141 for the first, 0.0567 for the second.
